Measured values taken from ChEMBL document CHEMBL1201862, “PubChem BioAssay data set” (2004).
Calls of active or inactive are those of the source.

Legend:
[1] = cells; assay type: functional, cell-based
[2] = target: Nuclear receptor subfamily 0 group B member 1 (Homo sapiens, UniProt P51843); assay type: functional, cell-based;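 also: HEK293T cells transfected with SF-1 and DAX-1 plus StAR promoter luciferase reporter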
[3] = system: HeLa; assay: viability loss in HeLa cells – cell-based, ATP luminescence, cherry-pick samples, cytotoxicity control, dose response (AID 687004); assay type: functional; settings: Homo sapiens
[4] = HEK293T viability loss – cell-based, ATP luminescence, dry powder, Set6, cytotoxicity control, dose response (AID 743142); assay type: functional; settings: HEK293
[5] = target: Voltage-dependent T-type calcium channel subunit alpha-1H (Homo sapiens, UniProt O95180); assay type: functional;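 also: channel activity triggered by adding a high calcium stimulation buffer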
Voltage-dependent T-type calcium channel subunit alpha-1H, sequence (O95180 whole entry): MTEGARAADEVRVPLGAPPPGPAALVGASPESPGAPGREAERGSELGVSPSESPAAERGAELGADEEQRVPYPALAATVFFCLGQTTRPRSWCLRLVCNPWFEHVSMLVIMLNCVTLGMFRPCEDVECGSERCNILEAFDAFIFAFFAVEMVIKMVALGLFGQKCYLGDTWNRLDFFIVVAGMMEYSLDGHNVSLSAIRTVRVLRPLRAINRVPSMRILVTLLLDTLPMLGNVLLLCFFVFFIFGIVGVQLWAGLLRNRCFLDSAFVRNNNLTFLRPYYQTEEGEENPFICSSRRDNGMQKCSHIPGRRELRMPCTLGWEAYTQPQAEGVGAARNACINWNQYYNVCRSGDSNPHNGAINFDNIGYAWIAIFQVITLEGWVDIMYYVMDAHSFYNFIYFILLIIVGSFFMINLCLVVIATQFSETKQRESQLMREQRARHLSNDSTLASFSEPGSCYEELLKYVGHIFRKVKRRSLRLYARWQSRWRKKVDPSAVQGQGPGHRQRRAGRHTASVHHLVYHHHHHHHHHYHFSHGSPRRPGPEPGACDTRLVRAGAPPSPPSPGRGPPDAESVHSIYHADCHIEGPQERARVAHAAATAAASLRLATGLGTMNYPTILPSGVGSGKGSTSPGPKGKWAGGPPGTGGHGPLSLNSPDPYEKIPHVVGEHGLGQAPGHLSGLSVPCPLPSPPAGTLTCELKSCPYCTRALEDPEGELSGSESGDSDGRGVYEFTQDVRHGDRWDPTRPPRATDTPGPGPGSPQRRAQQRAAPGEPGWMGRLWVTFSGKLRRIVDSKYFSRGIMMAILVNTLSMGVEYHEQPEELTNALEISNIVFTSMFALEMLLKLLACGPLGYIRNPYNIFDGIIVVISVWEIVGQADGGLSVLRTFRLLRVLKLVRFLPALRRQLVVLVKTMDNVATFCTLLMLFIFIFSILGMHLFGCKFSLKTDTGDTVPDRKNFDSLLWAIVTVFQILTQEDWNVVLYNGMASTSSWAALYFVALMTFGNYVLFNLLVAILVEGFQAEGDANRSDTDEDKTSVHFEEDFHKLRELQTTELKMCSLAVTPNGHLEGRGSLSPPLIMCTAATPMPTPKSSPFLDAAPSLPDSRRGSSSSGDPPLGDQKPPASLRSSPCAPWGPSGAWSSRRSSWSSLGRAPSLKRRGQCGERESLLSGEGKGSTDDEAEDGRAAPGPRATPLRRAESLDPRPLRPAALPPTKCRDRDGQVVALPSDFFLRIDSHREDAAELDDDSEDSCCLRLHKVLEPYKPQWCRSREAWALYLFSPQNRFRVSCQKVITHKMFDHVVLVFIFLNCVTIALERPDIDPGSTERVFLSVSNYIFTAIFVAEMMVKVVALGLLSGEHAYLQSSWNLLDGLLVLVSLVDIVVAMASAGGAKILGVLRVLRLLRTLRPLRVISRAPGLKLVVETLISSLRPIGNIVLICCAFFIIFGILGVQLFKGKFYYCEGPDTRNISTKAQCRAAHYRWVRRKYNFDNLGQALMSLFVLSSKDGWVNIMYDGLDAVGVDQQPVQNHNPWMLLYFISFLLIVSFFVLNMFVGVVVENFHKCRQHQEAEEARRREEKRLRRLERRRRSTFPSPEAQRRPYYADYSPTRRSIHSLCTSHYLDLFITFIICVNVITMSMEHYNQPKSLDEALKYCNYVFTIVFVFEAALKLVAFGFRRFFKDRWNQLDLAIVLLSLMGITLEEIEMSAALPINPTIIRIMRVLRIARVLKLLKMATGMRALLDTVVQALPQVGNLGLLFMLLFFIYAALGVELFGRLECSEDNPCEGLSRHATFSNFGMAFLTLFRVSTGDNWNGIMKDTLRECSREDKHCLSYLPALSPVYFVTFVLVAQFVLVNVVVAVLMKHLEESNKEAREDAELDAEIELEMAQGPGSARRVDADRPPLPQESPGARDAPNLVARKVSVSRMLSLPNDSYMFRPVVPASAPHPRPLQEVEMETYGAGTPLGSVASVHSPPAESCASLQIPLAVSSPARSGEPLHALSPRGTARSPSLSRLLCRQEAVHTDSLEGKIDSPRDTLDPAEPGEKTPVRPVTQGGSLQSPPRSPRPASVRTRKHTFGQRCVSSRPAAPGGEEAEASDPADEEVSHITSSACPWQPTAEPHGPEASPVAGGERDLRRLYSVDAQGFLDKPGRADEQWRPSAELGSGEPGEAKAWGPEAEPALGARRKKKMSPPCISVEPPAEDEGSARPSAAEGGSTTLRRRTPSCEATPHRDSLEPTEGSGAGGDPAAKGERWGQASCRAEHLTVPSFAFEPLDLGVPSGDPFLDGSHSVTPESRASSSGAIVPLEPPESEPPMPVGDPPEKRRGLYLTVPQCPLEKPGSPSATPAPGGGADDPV

[6] = target: T1, Beta-2 adrenergic receptor (Homo sapiens, UniProt P07550); assay: ADRB2 activation measured by internalization – cell-based, FAP fluorogen, flow cytometry, cherry pick 1, dose response (AID 588763); assay type: functional
T1 sequence (P07550 whole entry): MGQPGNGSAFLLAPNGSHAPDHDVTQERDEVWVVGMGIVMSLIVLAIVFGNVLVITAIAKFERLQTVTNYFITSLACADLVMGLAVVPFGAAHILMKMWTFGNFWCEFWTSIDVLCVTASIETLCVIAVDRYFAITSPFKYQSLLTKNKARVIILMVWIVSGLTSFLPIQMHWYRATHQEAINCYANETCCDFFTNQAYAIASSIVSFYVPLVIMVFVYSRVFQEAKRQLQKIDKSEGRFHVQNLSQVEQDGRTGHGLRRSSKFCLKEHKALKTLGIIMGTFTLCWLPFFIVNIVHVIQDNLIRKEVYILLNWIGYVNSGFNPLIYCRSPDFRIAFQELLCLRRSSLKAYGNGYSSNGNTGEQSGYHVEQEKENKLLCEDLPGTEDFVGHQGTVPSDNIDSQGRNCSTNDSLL

[7] = target: T1, Beta-2 adrenergic receptor; assay: Dose response for HTS for Beta-2AR agonists via FAP method from Powderset3.; assay type: functional
[8] = target: Galanin receptor type 3 (Homo sapiens, UniProt O60755); assay: Fluorescence-based cell-based primary high throughput dose response assay to identify antagonists of the Galanin Receptor 3 (GalR3).; assay type: functional
Galanin receptor type 3, sequence (O60755 whole entry): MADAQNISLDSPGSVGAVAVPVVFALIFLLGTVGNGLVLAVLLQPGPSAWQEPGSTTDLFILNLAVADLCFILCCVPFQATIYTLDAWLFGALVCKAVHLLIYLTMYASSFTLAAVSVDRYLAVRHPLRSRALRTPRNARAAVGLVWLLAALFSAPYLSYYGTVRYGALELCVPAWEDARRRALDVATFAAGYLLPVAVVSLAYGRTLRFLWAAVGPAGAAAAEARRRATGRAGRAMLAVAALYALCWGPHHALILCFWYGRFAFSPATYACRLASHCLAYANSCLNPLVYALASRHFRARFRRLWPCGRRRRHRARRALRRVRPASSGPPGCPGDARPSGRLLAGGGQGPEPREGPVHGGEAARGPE

[9] = cells; assay type: functional, cell-based; settings: HEK-CNG
[10] = system: HEK293; assay: cells; settings: Homo sapiens
[11] = system: HEK293; assay: cells; settings: Homo sapiens; remark: listed apart in the source
[12] = Luminescence Cell-Based Dose Response HTS to Identify Activators of Luciferase Translation or Activity in H4-C Neuroglioblastoma Cells. [Related pubchem assays: 1829 (Project Summary), 1814 (Primary HTS)]; assay type: functional
[13] = Luminescence Cell-Based Dose Retest to Confirm Activators of 5'UTR Stem-Loop Driven Alpha-Synuclein mRNA Translation in H4 Neuroglioblastoma Cells. [Related pubchem assays (depositor defined):AID1813, AID1829]; assay type: functional
[14] = Luminescence Cell-Based Dose Response HTS to Identify Activators of 5'UTR Stem-Loop Driven Prion Protein mRNA Translation in H4-C Neuroglioblastoma Cells. [Related pubchem assays: 1829 (Project Summary), 1814 (Primary HTS)]; assay type: functional
[15] = Luminescence Cell-Based Dose Confirmation HTS to Identify Activators of 5'UTR Stem-Loop Driven Alpha-Synuclein mRNA Translation in H4 Neuroglioblastoma Cells. [Related pubchem assays: 1829 (Project Summary), 1814 (Primary HTS)]; assay type: functional
[16] = Luminescence Cell-Based Dose Response HTS to Identify Activators of Luciferase Translation or Activity in H4 […] Cells. [Related pubchem assays: 1829 (Project Summary), 1814 (Primary HTS)]; assay type: functional
[17] = system: H4; assay: Luminescence Cell-Based Dose Response HTS to Identify Activators of 5'UTR Stem-Loop Driven Prion Protein mRNA Translation in H4 Neuroglioblastoma Cells. [Related pubchem assays: 1829 (Project Summary), 1814 (Primary HTS)]; assay type: functional; settings: Homo sapiens
[18] = viability loss in HepG2 hepatoma cells – cell-based, cherry-picks, set 5, cytotoxicity control, dose response (AID 1053118); assay type: functional
[19] = target: Albumin (Bos taurus, UniProt P02769); assay: Counterscreen for inhibitors of T-cell receptor (TCR)-CD3 interaction: Fluorescence-based biochemical high throughput dose response assay to identify inhibitors of T-cell receptor (TCR)-CD3 interaction using a TAMRA-labeled BSA probe.; assay type: functional
[20] = target: Beta-lactamase (Pseudomonas aeruginosa, UniProt Q79MP6);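 also: biochemical dose-response test of metallo-beta-lactamase enzyme inhibition, read out by epi-absorbance; purified recombinant IMP-1 metallo-beta-lactamase with nitrocefin as substrate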
Beta-lactamase (Pseudomonas aeruginosa, UniProt Q79MP6), sequence (Q79MP6 whole entry): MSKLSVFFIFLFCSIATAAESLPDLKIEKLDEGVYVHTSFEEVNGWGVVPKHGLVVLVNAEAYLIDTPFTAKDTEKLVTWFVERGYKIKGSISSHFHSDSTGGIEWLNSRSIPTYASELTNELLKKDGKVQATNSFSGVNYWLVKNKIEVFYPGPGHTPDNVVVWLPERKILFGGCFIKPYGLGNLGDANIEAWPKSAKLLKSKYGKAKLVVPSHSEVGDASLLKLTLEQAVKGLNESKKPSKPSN

[21] = target: Beta-lactamase (Salmonella choleraesuis (strain SC-B67), UniProt Q5J463)
[22] = target: T2, Insulin-degrading enzyme (Homo sapiens, UniProt P14735); assay: recombinant IDE activation, cell-free – biochemical, fluorescence polarization, counter-screen for IDE activator project, dose response (AID 588681)
T2 sequence (P14735 whole entry): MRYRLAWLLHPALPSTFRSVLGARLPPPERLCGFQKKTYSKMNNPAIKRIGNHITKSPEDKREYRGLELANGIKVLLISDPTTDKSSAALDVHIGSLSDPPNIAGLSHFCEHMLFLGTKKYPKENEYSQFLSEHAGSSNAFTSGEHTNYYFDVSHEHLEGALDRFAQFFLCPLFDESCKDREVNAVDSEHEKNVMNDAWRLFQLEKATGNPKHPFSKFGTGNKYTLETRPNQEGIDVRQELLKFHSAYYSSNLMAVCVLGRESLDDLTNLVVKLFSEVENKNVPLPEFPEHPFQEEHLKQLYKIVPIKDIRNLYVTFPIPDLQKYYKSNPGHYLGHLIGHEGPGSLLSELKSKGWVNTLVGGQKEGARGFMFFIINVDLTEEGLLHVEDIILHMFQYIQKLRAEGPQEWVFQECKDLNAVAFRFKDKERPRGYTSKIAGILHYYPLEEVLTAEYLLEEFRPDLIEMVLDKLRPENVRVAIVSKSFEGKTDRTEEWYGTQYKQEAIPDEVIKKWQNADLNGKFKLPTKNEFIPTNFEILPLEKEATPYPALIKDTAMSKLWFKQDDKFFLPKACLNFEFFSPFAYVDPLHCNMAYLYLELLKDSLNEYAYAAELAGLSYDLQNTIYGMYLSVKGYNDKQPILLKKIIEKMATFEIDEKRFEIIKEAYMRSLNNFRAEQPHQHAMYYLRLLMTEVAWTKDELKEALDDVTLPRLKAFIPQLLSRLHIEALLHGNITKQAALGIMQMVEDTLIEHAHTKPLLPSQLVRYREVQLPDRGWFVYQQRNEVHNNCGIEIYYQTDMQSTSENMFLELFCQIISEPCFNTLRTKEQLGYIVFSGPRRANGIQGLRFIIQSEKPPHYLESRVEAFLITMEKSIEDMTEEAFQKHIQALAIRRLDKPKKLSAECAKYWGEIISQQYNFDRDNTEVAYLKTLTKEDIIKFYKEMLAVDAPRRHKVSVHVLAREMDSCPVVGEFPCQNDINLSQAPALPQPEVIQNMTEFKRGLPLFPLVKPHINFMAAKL

[23] = target: T2, Insulin-degrading enzyme; assay: cellular IDE activation of Abeta substrate cleavage – fluorescence polarization, HEK cells, dose response (AID 588439); assay type: functional, cell-based
[24] = system: HEK293; assay: membrane integrity loss in HEK cells – cell-based, fluorescence, cytotoxicity control for IDE activator project, dose response (AID 588440); assay type: functional; settings: Homo sapiens;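 also: cytotoxicity by LDH release measuring loss of membrane integrity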
[25] = system: HEK293; assay: optical interference in Abeta FP readout, dose response, artefact control for IDE activator project, biochemical, fluorescence polarization (AID 588442); assay type: functional, cell-based; settings: Homo sapiens
[26] = target: Long-chain-fatty-acid--AMP ligase FadD28 (Mycobacterium tuberculosis, UniProt P9WQ59); assay: Fluorescence polarization aasay to screen for inhibitors that compete for the binding of FadD28 to a bisubstrate Measured in Biochemical System Using Plate Reader - 2147-01_Inhibitor_Dose_CherryPick_Activity.; assay type: functional, Mycobacterium tuberculosis H37Rv
Long-chain-fatty-acid--AMP ligase FadD28, sequence (P9WQ59 whole entry): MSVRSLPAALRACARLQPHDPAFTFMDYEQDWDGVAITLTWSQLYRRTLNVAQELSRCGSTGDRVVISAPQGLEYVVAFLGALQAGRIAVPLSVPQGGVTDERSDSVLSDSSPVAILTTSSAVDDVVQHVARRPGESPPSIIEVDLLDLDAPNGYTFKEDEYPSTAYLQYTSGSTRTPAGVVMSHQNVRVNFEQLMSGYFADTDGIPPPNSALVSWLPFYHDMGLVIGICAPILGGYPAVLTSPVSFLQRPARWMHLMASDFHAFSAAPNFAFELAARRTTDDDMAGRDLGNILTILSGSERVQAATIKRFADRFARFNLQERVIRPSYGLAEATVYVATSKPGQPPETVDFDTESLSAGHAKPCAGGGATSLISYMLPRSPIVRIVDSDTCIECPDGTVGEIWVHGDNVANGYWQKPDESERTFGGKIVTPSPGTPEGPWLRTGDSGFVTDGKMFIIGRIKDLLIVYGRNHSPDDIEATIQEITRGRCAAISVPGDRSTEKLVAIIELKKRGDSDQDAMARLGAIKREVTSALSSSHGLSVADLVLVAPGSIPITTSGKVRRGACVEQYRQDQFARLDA

[27] = target: Cytochrome P450 3A4 (Homo sapiens, UniProt P08684);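 also: CYP3A4 tested as one member of a cytochrome P450 panel screen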
Cytochrome P450 3A4, sequence (P08684 whole entry): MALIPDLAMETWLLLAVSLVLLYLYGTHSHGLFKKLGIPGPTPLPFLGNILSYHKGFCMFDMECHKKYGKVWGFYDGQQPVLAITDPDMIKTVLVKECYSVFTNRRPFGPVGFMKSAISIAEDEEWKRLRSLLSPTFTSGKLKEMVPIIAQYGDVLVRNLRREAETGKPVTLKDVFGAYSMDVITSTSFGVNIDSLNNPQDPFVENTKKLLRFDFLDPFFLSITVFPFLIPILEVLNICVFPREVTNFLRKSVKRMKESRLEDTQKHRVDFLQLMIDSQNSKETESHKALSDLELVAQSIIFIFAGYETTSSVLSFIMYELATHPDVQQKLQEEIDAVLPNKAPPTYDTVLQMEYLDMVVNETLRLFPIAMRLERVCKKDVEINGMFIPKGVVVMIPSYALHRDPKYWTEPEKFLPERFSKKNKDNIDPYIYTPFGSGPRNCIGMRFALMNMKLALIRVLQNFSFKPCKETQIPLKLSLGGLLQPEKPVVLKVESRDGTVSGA

[28] = target: Scavenger receptor class B member 1 (Mus musculus, UniProt Q61009); assay: blockers of DiI-HDL lipid transfer via SR-BI – cell-based, ldlA[mSR-BI] CHO, DiI fluorescence, dry powder, set 10, dose response (AID 624029); assay type: functional
[29] = viability loss in HeLa cells – cytotoxicity control for MgcRacGAP inhibitor project, dose response (AID 624300); assay type: functional
[30] = target: T3, Rac GTPase-activating protein 1 (Homo sapiens, UniProt Q9H0H5); assay: blockers of MgcRacGAP-driven Rac1 GTP hydrolysis – biochemical, ADP Hunter fluorescence, primary and confirmatory, confirmation (AID 624330); assay type: functional
T3 sequence (Q9H0H5 whole entry): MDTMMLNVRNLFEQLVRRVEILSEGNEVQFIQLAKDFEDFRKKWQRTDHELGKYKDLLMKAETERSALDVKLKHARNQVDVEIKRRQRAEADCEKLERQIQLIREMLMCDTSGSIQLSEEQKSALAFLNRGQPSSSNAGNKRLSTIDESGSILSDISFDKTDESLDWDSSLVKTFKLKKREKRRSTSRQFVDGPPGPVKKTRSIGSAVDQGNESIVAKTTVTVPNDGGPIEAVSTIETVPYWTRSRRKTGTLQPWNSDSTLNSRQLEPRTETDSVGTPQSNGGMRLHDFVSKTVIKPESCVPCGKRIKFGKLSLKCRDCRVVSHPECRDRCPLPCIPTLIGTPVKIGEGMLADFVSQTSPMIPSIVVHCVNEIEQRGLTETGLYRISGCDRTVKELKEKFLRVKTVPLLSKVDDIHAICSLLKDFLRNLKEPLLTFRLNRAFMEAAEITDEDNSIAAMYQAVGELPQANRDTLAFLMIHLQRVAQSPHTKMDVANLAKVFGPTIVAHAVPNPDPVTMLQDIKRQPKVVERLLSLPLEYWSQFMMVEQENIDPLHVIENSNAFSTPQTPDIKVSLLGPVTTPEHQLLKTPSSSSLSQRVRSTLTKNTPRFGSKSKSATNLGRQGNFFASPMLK

[31] = target: Arf-GAP with SH3 domain, ANK repeat and PH domain-containing protein 1 (Homo sapiens, UniProt Q9ULH1); assay type: functional;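 also: biochemical fluorescence polarization dose–response screen measuring inhibition of ASAP1; ASAP1 GAP domain stimulating GTP hydrolysis by truncated human ARF1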
[32] = target: T4, Histone-lysine N-methyltransferase NSD2 (Homo sapiens, UniProt O96028); assay type: biochemical
T4 sequence (O96028 whole entry): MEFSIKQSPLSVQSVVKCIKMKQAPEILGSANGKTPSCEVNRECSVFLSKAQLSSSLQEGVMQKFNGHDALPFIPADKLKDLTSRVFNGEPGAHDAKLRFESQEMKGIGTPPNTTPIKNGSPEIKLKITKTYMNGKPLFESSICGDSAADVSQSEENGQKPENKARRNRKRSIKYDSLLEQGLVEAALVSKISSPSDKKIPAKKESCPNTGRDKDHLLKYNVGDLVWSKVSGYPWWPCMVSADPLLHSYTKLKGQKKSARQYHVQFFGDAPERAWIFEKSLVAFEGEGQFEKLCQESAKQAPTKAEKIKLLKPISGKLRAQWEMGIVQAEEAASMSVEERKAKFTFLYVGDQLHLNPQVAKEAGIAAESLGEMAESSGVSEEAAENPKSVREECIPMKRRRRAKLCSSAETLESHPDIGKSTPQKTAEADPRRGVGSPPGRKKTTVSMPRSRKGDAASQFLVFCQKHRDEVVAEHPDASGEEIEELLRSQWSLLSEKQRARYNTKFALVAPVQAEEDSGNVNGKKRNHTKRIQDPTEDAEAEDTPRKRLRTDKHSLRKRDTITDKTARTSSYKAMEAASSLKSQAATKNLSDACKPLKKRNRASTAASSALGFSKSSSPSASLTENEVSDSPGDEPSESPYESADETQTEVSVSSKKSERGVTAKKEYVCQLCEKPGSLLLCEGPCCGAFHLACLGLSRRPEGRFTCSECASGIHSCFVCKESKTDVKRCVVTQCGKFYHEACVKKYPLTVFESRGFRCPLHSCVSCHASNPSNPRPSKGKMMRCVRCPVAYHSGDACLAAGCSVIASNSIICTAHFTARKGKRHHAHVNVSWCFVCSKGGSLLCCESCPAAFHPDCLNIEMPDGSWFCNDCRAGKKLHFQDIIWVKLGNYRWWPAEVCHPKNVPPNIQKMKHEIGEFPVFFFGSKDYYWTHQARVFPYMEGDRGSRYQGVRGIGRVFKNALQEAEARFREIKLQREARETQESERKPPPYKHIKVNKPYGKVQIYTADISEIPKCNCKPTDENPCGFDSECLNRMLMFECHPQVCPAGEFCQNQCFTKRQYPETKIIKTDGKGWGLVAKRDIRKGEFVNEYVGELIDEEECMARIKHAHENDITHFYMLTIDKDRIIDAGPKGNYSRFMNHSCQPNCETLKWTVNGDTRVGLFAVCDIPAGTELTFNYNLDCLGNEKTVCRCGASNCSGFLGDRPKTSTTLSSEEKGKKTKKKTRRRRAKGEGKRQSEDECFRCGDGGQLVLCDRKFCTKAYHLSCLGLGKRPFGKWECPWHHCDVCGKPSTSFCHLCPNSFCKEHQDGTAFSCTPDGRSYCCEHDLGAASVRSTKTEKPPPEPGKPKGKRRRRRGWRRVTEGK

[33] = HGIII-sPLA2 enzyme inhibition potency – biochemical, QFRET, IC50, dose response (AID 743457);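 also: green fluorescence rise as the enzyme cleaves BODIPY PC-A2 in liposomes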

Nuclear receptor subfamily 0 group B member 1, sequence (P51843 whole entry): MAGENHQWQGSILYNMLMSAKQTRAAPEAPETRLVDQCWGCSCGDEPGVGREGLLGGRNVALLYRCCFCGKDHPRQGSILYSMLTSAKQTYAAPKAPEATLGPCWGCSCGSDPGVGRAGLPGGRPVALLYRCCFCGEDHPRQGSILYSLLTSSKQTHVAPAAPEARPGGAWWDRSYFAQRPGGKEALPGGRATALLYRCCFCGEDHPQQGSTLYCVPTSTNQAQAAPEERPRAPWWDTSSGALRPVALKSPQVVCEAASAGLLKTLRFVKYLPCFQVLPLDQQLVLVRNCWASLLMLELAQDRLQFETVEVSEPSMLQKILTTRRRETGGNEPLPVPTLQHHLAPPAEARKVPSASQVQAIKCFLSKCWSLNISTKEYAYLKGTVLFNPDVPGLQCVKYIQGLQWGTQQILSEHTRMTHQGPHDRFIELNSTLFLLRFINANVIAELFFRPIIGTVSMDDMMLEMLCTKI

## O=C1c2ccccc2C(=O)N1CCOc1ccccc1Br
[1]
  IC50: > 67.5 µM (inactive)
[2]
  IC50: > 67.5 µM (inactive)

## C[C@@H]1CN([C@@H](C)CO)C(=O)Cc2cc(NC(=O)Nc3cccc4ccccc34)ccc2O[C@@H]1CN(C)S(=O)(=O)c1cccs1
[3]
  AC50: 32.3 µM (active)

## O=C(CCNC(=O)c1ccc(F)cc1)N[C@@H]1CCCc2ccccc21
[4]
  AC50: 16.5 µM (active)

## CN(Cc1ccccc1)S(=O)(=O)c1ccc(NS(=O)(=O)Cc2ccccc2)cc1
[5]
  EC50: 3.46 µM (active)
[6]
  EC50: 1.25 µM (active)
[7]
  EC50: 0.0609 µM (active)

## CCc1nc2sc(C#N)c(N)c2c2c1CCCC2
[8]
  IC50: > 3.32 µM (active)
[9]
  EC50: > 29.9 µM (inactive)
[10]
  EC50: > 59.6 µM (inactive)
[11]
  EC50: > 59.6 µM (inactive)

## O=c1c2cc(N3CCOCC3)ccc2[nH]c(=S)n1Cc1ccc(Cl)cc1
[12]
  EC50: 2.96 µM (active)
[13]
  EC50: 0.719 µM (active)
[14]
  EC50: 4.66 µM (active)
[15]
  EC50: 5.35 µM (active)
[16]
  EC50: 66.7 µM (active)
[17]
  EC50: 5.33 µM (active)
[18]
  AC50: > 52 µM (inactive)

## O=C(NNC(=O)c1cc2ccccc2cc1O)Nc1ccc(F)cc1F
[19]
  IC50: > 94.1 µM (inactive)

## N#CC(C#N)=C1C=C2C=C(N3CCOCC3)CCC2CC1 (stereo not drawn)
[20]
  IC50: 6.86 µM (active)
[21]
  IC50: 1.49 µM (active)
[22]
  EC50: > 54.7 µM (inactive)
[23]
  EC50: > 54.7 µM (inactive)
[24]
  IC50: > 89.1 µM (inactive)
[25]
  EC50: > 54.7 µM (inactive)

## Cc1cccc(NC(=O)Cn2c(=O)oc3ccccc32)c1
[26]
  AC50: 5.47 µM (active)
[27]
  AC50: 25.1 µM (inconclusive)

## CC(C)NC(=O)Nc1ccc2c(c1)C(=O)N([C@H](C)CO)C[C@@H](C)[C@@H](CN(C)S(=O)(=O)c1ccc(Cl)cc1)O2
[28]
  AC50: 39.9 µM (active)

## CN(C)c1ccc(/C=C/c2cc[n+](C)c3ccccc23)cc1.[O-][Cl+3]([O-])([O-])[O-]
[29]
  CC50: 41.1 µM (active)
[30]
  IC50: 36.1 µM (active)
[31]
  IC50: 21.4 µM (inactive)
[32]
  AC50: 11.7 µM (active)
[33]
  IC50: 28.6 µM (inactive)
